Results taken from patent US20040014217A1, “Methods of transfection” (priority 2000, published 2004).

Key:
1HAEo-cells = test: BrdU incorporation by flow cytometry, 1HAEo- cells; type: cell-based, human; conditions: EGTA 2 mM, aphidicolin 10 μg/ml where present
Description: A BrdU Labelling and Detection Kit (Roche, Basel, Switzerland) was used, which contains the BrdU labelling reagent and the monoclonal mouse anti-BrdU. […] Cells were washed with PBS and incubated with a second layer antibody, Texas Red labelled horse anti-mouse IgG (Vector Laboratories, Peterborough, UK), for 30 minutes at 37° C. and then analysed by flow cytometry at the wavelength of 575±20 nm as detailed above. In some experiments, aphidicolin, a cell-proliferation inhibitor blocking the cell cycle in S-phase, was added to the cells to observe the effects on transfection efficiency.

[1] = test system: Human airway epithelial (HAE) cells; test: BrdU labelling of HAE cells, Example 13; type: cell-based
Description: Bromodeoxyuridine (BrdU) labelling enables assessment of cell proliferation. BrdU kits are available from Zymed Laboratories, Inc., South San Francisco, Calif., U.S.A. BrdU was added to the cells at the same time as the transfection reagent and was maintained throughout the rest of the experiment until cell harvesting.

integrins = conditions: cited from earlier work
ECV304 cells = test: Luciferase (pGL2) transfection of ECV304 cells; type: cell-based, human; conditions: LID complexes, 40 μg total [K]16-peptide; luciferase after 48 hours
Description: Cells were seeded into 24-well plates at 5×10^4 cells per well then incubated overnight at 37° C. in complete growth medium. The following day, transfection complexes were made from the following stock solutions, all prepared in OptiMEM (Life Technologies, Paisley, U. K.), lipofectin (an equimolar mixture of the cationic lipid N-[1-(2,3-dioleyloxy)propyl]-N,N,N-trimethylammonium chloride (DOTMA) and the neutral lipid dioleoyl phosphatidylethanolamine (DOPE), obtained as “Lipofectin” from Life Technologies, Paisley, U.K.) (1 mg/ml), pGL2-control (1 mg/100 ml) and [K]16]/integrin-targeting peptide 1, 5 or 6 (0.1 mg/ml).
Complexes were made usually with three components: oligolysine-peptide (I), plasmid DNA or RNA (D) and lipofectin (L), by mixing together the different components with an automatic pipette. […]
Cells transformed with pGL2 were washed twice with PBS to remove serum then 100 microlitres of Reporter Lysis Buffer (Promega, Madison, Wis, U.S.A.) was added to each well and placed at […] for 15 to 30 minutes. […] Total light emission was measured for 60 seconds on an LKB 1251 Luminometer (Labtech, Uckfield, U.K.). The protein concentration of each sample was then determined with Protein Assay Reagent (BioRad, Hercules, Calif., U.S.A.) and luciferase enzyme activity expressed in terms of relative light units per milligram of protein (RLU/mg). […]

[2] = test system: human lung fibroblasts (HFL-1 cells); test: Thrombin-induced proliferation of HFL-1 cells after antisense (PAR-1) transfection; type: cell-based
Description: Thrombin stimulates proliferation of human lung fibroblasts. Thrombin-treated human lung fibroblasts (HFL-1 cells) proliferated 53% in response to thrombin. 24 hours before treatment with thrombin, HFL-1 cells were treated with an LID complex comprising [K]16-peptide 6, lipofectin and a 20-mer antisense oligonucleotide directed against the thrombin receptor PAR-1 in the optimal ratio and mixing order prepared as described in the Materials and Methods section and the Examples above. The antisense oligonucleotide-containing complex was in contact with the cells for 4 hours. 24 hours after the start of the treatment with the complex, treatment with thrombin was carried out.

Compound: O=c1[nH]c(=O)n([C@H]2C[C@H](O)[C@@H](CO)O2)cc1Br [BrdU, 5-Bromo-2′-deoxy-uridine]
- BrdU-positive cells, confluent 1HAEo- cells (1HAEo-cells): 7.1%
- BrdU-positive cells, sub-confluent 1HAEo- cells (1HAEo-cells): 43.0%
- BrdU labelling, Confluent cells [1]: 7.1%
- BrdU labelling, Sub-confluent cells [1]: 44.4%

Compound: C[C@@]1(CO)[C@H](O)CC[C@@]2(C)[C@H]1CC[C@H]1C[C@@H]3C[C@@]12CC[C@]3(O)CO [aphidicolin, Aphidicolin]
- BrdU-positive cells, confluent 1HAEo- cells (1HAEo-cells): 5%
- BrdU-positive cells, sub-confluent 1HAEo- cells (1HAEo-cells): 7%

Compound: GACDCRGDCFCA [Peptide 5]
- integrin specificity (integrins): (αv)

Compound: [K]16GACRRETAWACG (KKKKKKKKKKKKKKKKGACRRETAWACG) [oligolysine-peptide 6]
- transfection efficiency with increasing amounts of oligolysine-peptide 6 replacing [K]16 (ECV304 cells): apparently exponential increase

Compound: thrombin
- proliferation in response to thrombin [2]: 53%
